This is an account of results in patent US7063946B2, “Methods, reagents, kits and apparatus for protein function analysis” (Meso Scale Technologies, LLC., priority 2001, dated 2006).

Common to all, as to assay: Kinase inhibitor profiling, pEY phosphorylation
Common to all, as to assay type: biochemical

For experiment [1], the target named is T1, BMX (Homo sapiens, UniProt P51813).
T1 construct: specificity data for proteins generated from a library of eighteen full-length clones; host or cells: rabbit reticulocyte lysate, TnT coupled in vitro transcription/translation (cell-free)
T1 sequence (P51813 1-675): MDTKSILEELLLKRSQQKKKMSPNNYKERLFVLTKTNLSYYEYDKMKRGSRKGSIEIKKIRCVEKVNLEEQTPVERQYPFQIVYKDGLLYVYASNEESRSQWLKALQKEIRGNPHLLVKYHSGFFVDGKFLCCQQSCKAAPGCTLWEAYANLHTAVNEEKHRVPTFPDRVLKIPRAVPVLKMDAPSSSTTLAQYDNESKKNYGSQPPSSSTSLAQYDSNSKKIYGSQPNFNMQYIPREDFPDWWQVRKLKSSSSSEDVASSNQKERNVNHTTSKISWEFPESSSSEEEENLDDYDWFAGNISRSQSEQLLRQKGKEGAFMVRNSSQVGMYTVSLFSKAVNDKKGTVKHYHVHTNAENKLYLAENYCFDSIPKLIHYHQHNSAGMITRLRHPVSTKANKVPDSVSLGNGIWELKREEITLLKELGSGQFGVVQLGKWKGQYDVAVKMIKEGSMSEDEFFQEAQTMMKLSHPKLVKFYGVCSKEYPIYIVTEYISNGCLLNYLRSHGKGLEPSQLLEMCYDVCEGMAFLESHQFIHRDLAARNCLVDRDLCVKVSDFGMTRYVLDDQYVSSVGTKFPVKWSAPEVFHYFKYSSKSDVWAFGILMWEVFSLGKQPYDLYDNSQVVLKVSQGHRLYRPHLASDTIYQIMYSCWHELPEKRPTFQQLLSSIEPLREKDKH

Experiment [2] has as its target T2, CSK (Homo sapiens, UniProt P41240).
T2 construct: specificity data for proteins generated from a library of eighteen full-length clones; host or cells: rabbit reticulocyte lysate, TnT coupled in vitro transcription/translation (cell-free)

Experiment [3] has as its target T3, SYK (Homo sapiens, UniProt P43405).
T3 construct: autophosphorylation activity from full-length clones Spleen Tyrosine Kinase (SYK) and Eph receptor-A7 (EphA7); host or cells: rabbit reticulocyte lysate, TnT coupled in vitro transcription/translation (cell-free)

Experiment [4] addresses T4, Epha7 (Mus musculus, UniProt Q61772).
T4 construct: autophosphorylation activity from full-length clones Spleen Tyrosine Kinase (SYK) and Eph receptor-A7 (EphA7); host or cells: rabbit reticulocyte lysate, TnT coupled in vitro transcription/translation (cell-free)

In experiment [5] the target is T5, PTK2B (Homo sapiens, UniProt Q14289).
T5 construct: specificity data for proteins generated from a library of eighteen full-length clones; host or cells: rabbit reticulocyte lysate, TnT coupled in vitro transcription/translation (cell-free)
T5 sequence (Q14289 whole entry): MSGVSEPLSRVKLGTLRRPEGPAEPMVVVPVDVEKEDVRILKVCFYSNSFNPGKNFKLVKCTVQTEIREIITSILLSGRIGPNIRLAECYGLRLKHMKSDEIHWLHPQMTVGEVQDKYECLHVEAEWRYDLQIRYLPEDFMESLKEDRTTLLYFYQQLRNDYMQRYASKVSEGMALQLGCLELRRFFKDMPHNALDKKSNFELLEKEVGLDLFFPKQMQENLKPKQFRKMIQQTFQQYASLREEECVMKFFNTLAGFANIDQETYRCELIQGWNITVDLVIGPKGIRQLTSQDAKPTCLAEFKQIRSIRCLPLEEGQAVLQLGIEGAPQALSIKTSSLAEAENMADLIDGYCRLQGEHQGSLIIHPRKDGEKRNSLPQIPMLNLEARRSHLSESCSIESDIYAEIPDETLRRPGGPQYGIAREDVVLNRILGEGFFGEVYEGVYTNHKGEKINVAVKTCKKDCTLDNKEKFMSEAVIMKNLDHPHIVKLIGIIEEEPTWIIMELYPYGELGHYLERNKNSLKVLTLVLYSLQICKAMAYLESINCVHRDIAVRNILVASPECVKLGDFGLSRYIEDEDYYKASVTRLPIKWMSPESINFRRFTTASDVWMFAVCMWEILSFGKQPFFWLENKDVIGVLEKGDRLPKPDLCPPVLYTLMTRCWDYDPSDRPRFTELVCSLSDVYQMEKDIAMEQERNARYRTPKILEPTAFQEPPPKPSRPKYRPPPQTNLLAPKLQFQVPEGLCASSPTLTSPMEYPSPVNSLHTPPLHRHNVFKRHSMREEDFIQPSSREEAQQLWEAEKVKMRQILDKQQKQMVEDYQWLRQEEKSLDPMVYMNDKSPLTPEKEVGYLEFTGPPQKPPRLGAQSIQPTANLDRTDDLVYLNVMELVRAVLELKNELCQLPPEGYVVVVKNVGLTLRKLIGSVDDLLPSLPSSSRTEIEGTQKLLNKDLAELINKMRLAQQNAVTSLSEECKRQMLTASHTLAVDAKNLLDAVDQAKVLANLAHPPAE

The target of experiment [6] is T6, SRC (Mus musculus, UniProt P05480).
T6 construct: specificity data for proteins generated from a library of eighteen full-length clones; host or cells: rabbit reticulocyte lysate, TnT coupled transcription/translation
T6 sequence (P05480 whole entry): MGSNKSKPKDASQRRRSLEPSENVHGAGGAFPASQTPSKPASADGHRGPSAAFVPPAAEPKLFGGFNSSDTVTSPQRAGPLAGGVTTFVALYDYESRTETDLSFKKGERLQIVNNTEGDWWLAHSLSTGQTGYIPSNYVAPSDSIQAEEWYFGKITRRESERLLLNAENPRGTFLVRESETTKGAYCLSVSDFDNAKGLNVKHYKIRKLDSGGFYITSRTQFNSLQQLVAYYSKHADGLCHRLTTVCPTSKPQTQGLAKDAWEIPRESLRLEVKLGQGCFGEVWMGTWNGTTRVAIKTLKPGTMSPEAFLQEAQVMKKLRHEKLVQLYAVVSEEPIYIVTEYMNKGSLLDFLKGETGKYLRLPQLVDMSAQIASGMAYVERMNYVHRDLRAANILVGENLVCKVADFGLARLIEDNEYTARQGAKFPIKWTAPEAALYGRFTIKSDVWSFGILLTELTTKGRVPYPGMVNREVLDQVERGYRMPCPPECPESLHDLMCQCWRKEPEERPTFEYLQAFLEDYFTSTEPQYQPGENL

T4 sequence (Q61772 28-998): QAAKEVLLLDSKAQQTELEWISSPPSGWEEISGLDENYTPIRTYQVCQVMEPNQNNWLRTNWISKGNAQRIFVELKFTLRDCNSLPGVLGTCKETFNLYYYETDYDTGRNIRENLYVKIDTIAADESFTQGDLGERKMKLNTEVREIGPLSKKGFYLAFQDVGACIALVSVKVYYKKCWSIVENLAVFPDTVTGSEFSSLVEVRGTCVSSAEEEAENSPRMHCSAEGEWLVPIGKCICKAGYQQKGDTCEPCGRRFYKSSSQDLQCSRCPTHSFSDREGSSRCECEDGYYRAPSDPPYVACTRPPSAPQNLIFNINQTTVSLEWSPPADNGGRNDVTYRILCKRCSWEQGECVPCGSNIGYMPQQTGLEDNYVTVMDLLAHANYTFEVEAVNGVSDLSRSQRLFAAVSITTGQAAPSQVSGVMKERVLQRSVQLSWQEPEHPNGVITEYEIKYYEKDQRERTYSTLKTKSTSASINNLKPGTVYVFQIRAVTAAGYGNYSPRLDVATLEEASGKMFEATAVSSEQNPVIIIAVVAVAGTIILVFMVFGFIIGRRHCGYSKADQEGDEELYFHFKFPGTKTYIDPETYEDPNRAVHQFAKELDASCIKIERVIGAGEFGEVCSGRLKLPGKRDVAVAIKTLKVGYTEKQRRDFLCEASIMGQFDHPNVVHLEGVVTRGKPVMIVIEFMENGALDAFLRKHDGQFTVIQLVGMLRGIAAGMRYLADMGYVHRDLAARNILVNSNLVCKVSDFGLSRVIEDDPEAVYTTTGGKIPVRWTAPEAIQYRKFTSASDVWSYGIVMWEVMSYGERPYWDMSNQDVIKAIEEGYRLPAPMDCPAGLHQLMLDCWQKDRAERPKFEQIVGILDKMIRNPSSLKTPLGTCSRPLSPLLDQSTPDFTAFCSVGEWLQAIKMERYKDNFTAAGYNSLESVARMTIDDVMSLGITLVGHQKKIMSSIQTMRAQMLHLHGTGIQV
T2 sequence (P41240 whole entry): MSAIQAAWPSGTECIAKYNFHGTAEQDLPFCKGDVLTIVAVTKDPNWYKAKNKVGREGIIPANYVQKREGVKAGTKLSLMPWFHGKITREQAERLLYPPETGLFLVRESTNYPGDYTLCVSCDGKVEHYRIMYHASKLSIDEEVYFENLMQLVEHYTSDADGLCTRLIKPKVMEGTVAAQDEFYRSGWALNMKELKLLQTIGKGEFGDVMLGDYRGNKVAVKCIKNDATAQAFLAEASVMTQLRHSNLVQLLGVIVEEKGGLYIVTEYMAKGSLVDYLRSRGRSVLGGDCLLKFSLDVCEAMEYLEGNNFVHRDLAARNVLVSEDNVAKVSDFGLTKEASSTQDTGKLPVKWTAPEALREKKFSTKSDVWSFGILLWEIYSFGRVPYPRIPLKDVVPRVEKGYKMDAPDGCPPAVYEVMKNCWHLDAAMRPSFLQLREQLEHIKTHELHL

Take `COC(=O)c1ccc(NCc2cc(O)ccc2O)cc1` [AG-957]: the “Inhibition specificity towards pEY phosphorylation at 10X IC50, BMX” value in experiment [1] is “L (low inhibition (“L”=between 50–75% of the activity remaining))”. Also, the “Inhibition specificity towards pEY phosphorylation at 10X IC50, CSK” value in experiment [2] is on record as “M (medium inhibition (“M”=between 25 to 50% of the activity remaining))”.

For `CC(C)(C)c1cc(C=C(C#N)C#N)cc(Br)c1O` [AG-1024], the “Inhibition specificity towards pEY phosphorylation at 10X IC50, SYK” value in experiment [3] is “L (low inhibition (“L”=between 50–75% of the activity remaining))”.

`Cc1cc2ncc(-c3ccc(O)c(O)c3)nc2cc1C` [AG-1433]: the “Inhibition specificity towards pEY phosphorylation at 10X IC50, BMX” value in experiment [1] is given as “H (high inhibition (“H”=less than 25% of the activity remaining))”. Also, in experiment [2], the “Inhibition specificity towards pEY phosphorylation at 10X IC50, CSK” value is given as “M (medium inhibition (“M”=between 25 to 50% of the activity remaining))”. Further, the “Inhibition specificity towards pEY phosphorylation at 10X IC50, Epha7” value in experiment [4] is reported as “L (low inhibition (“L”=between 50–75% of the activity remaining))”. In addition, the “Inhibition specificity towards pEY phosphorylation at 10X IC50, PTK2B” value in experiment [5] is given as “L (low inhibition (“L”=between 50–75% of the activity remaining))”. Besides, in experiment [6], the “Inhibition specificity towards pEY phosphorylation at 10X IC50, Src” value is given as “H (high inhibition (“H”=less than 25% of the activity remaining))”. The “Inhibition specificity towards pEY phosphorylation at 10X IC50, SYK” value in experiment [3] is given as “M (medium inhibition (“M”=between 25 to 50% of the activity remaining))”.

For `COc1c(C=O)c(O)cc2c1C(=O)c1ccccc1C2=O` [Damnacanthal], the “Inhibition specificity towards pEY phosphorylation at 10X IC50, BMX” value in experiment [1] is listed as “H (high inhibition (“H”=less than 25% of the activity remaining))”. The “Inhibition specificity towards pEY phosphorylation at 10X IC50, CSK” value in experiment [2] is reported as “H (high inhibition (“H”=less than 25% of the activity remaining))”. The “Inhibition specificity towards pEY phosphorylation at 10X IC50, Epha7” value in experiment [4] was “H (high inhibition (“H”=less than 25% of the activity remaining))”. In experiment [5], the “Inhibition specificity towards pEY phosphorylation at 10X IC50, PTK2B” value is “H (high inhibition (“H”=less than 25% of the activity remaining))”. Further, the “Inhibition specificity towards pEY phosphorylation at 10X IC50, Src” value in experiment [6] is recorded as “H (high inhibition (“H”=less than 25% of the activity remaining))”. Further, the “Inhibition specificity towards pEY phosphorylation at 10X IC50, SYK” value in experiment [3] is “H (high inhibition (“H”=less than 25% of the activity remaining))”.

For the compound `Cc1ccc(-c2nn(C(C)(C)C)c3ncnc(N)c23)cc1` [PP1], the “Inhibition specificity towards pEY phosphorylation at 10X IC50, BMX” value in experiment [1] was “L (low inhibition (“L”=between 50–75% of the activity remaining))”.

As for `COc1cc2ncnc(Nc3ccc(O)cc3)c2cc1OC` [WHI-P131], the “Inhibition specificity towards pEY phosphorylation at 10X IC50, BMX” value in experiment [1] was “L (low inhibition (“L”=between 50–75% of the activity remaining))”. In addition, in experiment [4], the “Inhibition specificity towards pEY phosphorylation at 10X IC50, Epha7” value was “L (low inhibition (“L”=between 50–75% of the activity remaining))”. In experiment [5], the “Inhibition specificity towards pEY phosphorylation at 10X IC50, PTK2B” value was “L (low inhibition (“L”=between 50–75% of the activity remaining))”. In addition, the “Inhibition specificity towards pEY phosphorylation at 10X IC50, Src” value in experiment [6] was “L (low inhibition (“L”=between 50–75% of the activity remaining))”.
